In brackets after ≈: the same amount, converted by molar mass.
Columns and labels:
[1] = Assay 5 Leishmania donovani intracellular assay, cytotoxicity against THP-1 cells; assay type: cell-based; settings: human, total number of THP-1 cells, minimum threshold 4.3, read-out: cytotoxicity against THP-1 cells, pEC50 value (converted)
Method: Compounds were dispensed into black 384-well assay plates (Greiner) by acoustic dispensing (LabCyte ECHO). For potency determinations, eleven-point, one in three dilution curves were generated, with a top concentration of 50 μM. THP-1 human monocytes cells were dispensed in T225 tissue culture flasks and differentiated using 30 nM of PMA, after 24 hours they were infected overnight using Leishmania donovani expressing Green Fluorescent Protein (eGFP) amastigotes in the same T225 tissue culture flasks at a multiplicity of infection of 10. Next, any remaining free amastigotes were washed away with PBS and the infected THP-1 cells were harvested by trypsinisation. The infected cells were then plated into 384-well plates containing the compounds to be tested, at 3000 cells per well in RPMI media with 2% FBS and 25 mM Sodium bicarbonate. After 96 h incubation at 37° C. in presence of 5% CO2, the plates were fixed with 4% formaldehyde for 30 minutes, washed with PBS and stained with 0.1 mg/mL of DAPI for 30 minutes and washed again with PBS. The plates were imaged on a Perkin Elmer Opera high-content imaging system using a 20× air objective with two expositions, one for DAPI stain and other for eGFP. Images were analysed using the Acapella building blocks system (Perkin Elmer). The image analysis algorithm first identified the THP-1 nuclei followed by demarcation of the cytoplasm and identification of intracellular amastigotes. This algorithm reported mean number of parasites per THP-1 cell, the percentage of infected THP-1 cells and the total number of THP-1 cells.

[2] = Assay 6 Trypanosoma cruzi intracellular assay, cytotoxicity against H9c2 cells; assay type: cell-based; settings: rat, H9C2 cardiomyocytes infected with T. cruzi trypomastigotes, total number of H9C2 cells, minimum threshold 4.3, read-out: cytotoxicity against H9c2 cells, pEC50 (converted)
Method: Compounds were dispensed into black 384-well assay plates (Greiner) by acoustic dispensing (LabCyte ECHO). For potency determinations, eleven-point, one in three dilution curves were generated, with a top concentration of 50 μM. H9C2 rat cardiomyocytes cells were dispensed in T225 tissue culture flasks and after 4 hours they were infected during 18 hours with T. cruzi trypomastigotes in the same T225 tissue culture flasks at a multiplicity of infection of 1. Next, any remaining free trypomastigotes were washed away with PBS and the infected H9C2 cells were harvested by trypsinisation. The infected H9C2 cells were then plated into 384-well plates containing the compounds to be tested, at 2500 cells per well in DMEM media with 2% FBS, 1% Penicillin/Streptomocin, 2 mM L-Glutamine, 1 mM Na Pyruvate and 25 mM HEPES. After 72 h incubation at 37° C. in presence of 5% CO2, the plates were fixed and stained with 4% formaldehyde and 2 μM Draq5 for 3 hours at room temperature. The plates were imaged on a Perkin Elmer Opera high-content imaging system using a 20× air objective. Images were analysed using the Acapella building blocks system (Perkin Elmer). The image analysis algorithm first identified the H9C2 nuclei followed by demarcation of the cytoplasm and identification of intracellular amastigotes. This algorithm reported mean number of parasites per H9C2 cell, the percentage of infected H9C2 cells and the total number of H9C2 cells.

Trypanosoma cruzi = assay: Assay 6 Trypanosoma cruzi intracellular assay (infected H9C2 cells); assay type: cell-based; settings: H9c2, in Rattus norvegicus, 72 h, infected H9C2 rat cardiomyocytes, read-out: pEC50 value against Trypanosoma cruzi (converted)
Summary of the method: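 Infected H9C2 rat cardiomyocytes (T. cruzi trypomastigotes, MOI 1, 18 h) plated at 2500 cells/well on compound, 11-point 1:3 curves from 50 μM top, 72 h at 37 °C in 2% FBS DMEM. Fixed, Draq5-stained, high-content imaged; algorithm counts parasites per cell, % infected cells and total host cells (cytotoxicity).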

[3] = Assay 4 solubility assay, ChemiLuminescent Nitrogen Detection (CLND); assay type: physicochemical; settings: phosphate buffered saline, pH 7.4, aqueous buffer, kinetic from dmso stock, pH 7.4 PBS, from 10 mM DMSO stock, 1 h at room temperature
Summary of the method: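 Kinetic solubility: 10 mM DMSO stock diluted 5 µl into 100 µl pH 7.4 PBS, incubated 1 h at room temperature, then filtered. Filtrate quantified by HPLC with chemiluminescent nitrogen detection against ondansetron and caffeine standards; solubility in µM by linear-regression calibration.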

[4] = Assay 1 intramacrophage Leishmania donovani assay, THP-1 cell count (cytotoxicity readout); assay type: cell-based; settings: human, minimum threshold 4.3, read-out: cytotoxicity against THP-1 cells, pEC50 value (converted)
Method: The intramacrophage Leishmania assay was performed using a modified version of the method described in De Rycker et al. (Antimicrob Agents Chemother. 2013 July; 57(7):2913-22. Comparison of a high-throughput high-content intracellular Leishmania donovani assay with an axenic amastigote assay. De Rycker M, Hallyburton I, Thomas J, Campbell L, Wyllie S, Joshi D, Cameron S, Gilbert I H, Wyatt P G, Frearson J A, Fairlamb A H, Gray D W.). Procedure: 350 nl of compound was pre-dispensed into 384 well sterile intermediary plates. For single point screening, amphotericin B was added to all wells of column 24 as a positive control (final concentration 2 μM) and DMSO to column 23. For potency determinations, ten-point, one in three dilution curves were created with the highest concentration being 50 μM and on each plate a control curve of amphotericin B was included. Controls were as follows: columns 11 and 12: DMSO, columns 23 and 24: amphotericin B (final concentration 2 μM). To the intermediary plates, 35 μl of THP-1 media was added and plates were shaken for >5 min to ensure complete mixing. THP-1 cells (8,000 per well, 50 μl) were plated into black clear-bottom 384 well plates (Corning) in presence of 20 nM PMA. After 20 min at RT, the plates were incubated at 37° C. under 5% CO2 in a humidified incubator for 75 h. The cells were then washed with […] sterile phosphate buffered saline (PBS) supplemented with 1 mM CaCl2, 0.5 mM MgCl2, 0.1% (w/v) bovine serum albumin (PBS-A) and amastigotes were added to all wells at a multiplicity of infection of 5 (40,000 amastigotes per well). After 40 min at RT, plates were returned to the incubator. Amastigotes were incubated in the presence of THP-1 macrophages for 16 h. Any remaining extracellular amastigotes were subsequently removed with an overflow wash of 1 mL PBS-A per well (wash buffer is being aspirated from the top of the well as it is being dispensed) followed by addition of 25 μl of the compound pre-dilutions using a Fluidx Ipette-pro pipetting station. The final dilution of each compound was 200-fold. Plates were incubated for 96 h and then washed (250 μl PBS-A) and fixed (4% (v/v) formaldehyde-PBS, 30 min, RT). After fixation, the wells were washed with 250 μl PBS, stained (10 μg/mL DAPI, 0.4 μg mL-1 HCS Cellmask Deep Red in PBS+0.1% (v/v) Triton X-100, 30 min, RT) and washed with 250 μl PBS. Finally, PBS+0.05% (v/v) thimerosal was added to the wells, the plates were sealed and imaged on a high-content microscope (GE IN Cell 2000) using a 10× objective. Image analysis was carried out with GE IN Cell Analyzer 1000 Workstation using the “Multi Target Analysis” module. Settings for segmentation were as follows: nuclei: minimum area: 142.384 μm2, sensitivity: 81, method: top-hat; cells: characteristic area: 2500 μm2, sensitivity: 60, method: multiscale top-hat; organelles (amastigotes): granule size 1-3, 3 scales, sensitivity: 90, detection in entire cell. For each well, i) THP-1 cell count (cytotoxicity readout) and ii) average number of amastigotes per cell (potency readout) were calculated, both in terms of pEC50 values.

solubility at 1 h [3]: 10 to 83 µM (≈ 4.46 to 37 µg/mL)
SMILES: CNCc1ccc(-c2cnc3nc(-c4cc(NC(=O)N5CCCC5)ccc4F)cn3n2)cc1 [Example 38, N-(4-fluoro-3-(2-(4-((methylamino)methyl)phenyl)imidazo[1,2-b] [1,2,4]triazin-6-yl)phenyl)pyrrolidine-1-carboxamide]
EC50 at 96 h [1]: 2.51 to 10 µM
EC50 at 72 h [2]: 0.794 to 3.16 µM
EC50 (Trypanosoma cruzi): 0.00501 to 0.631 µM
EC50 at 96 h [4]: 3.98 to 15.8 µM
